Consider 7 molecules from patent US11780849B2, “Imino sulfanone inhibitors of ENPP1” (Volastra Therapeutics, Inc., priority 2020, dated 2023).

SMILES strings stand for the structures. pIC50, pKi: −log10 of the molar value. Like-named read-outs stand apart in the source and are kept apart here.

Test [1] concerns the target T1, ENPP-1 ECD (Homo sapiens (Human), UniProt P22413). The experiment in a line: Assay 2: inhibition of ENPP1 hydrolysis of 2′,3′-cGAMP (AMP-Glo, […] enzyme). The settings on record: for Ki: inhibition of ENPP1 hydrolysis of 2′,3′-cGAMP, no unit in Table 18 (Table 17 legend for this assay uses nM).
Description: Assay 2: Compared to the conditions in Assay 1, this assay has a larger dynamic range and ensures the system is under steady-state conditions by reducing the enzyme concentration in the assay.
Test compounds were plated in a 3× dilution scheme in a 384 well plate. […] AMP Detection solution (10 μL) was added to each well, the plate centrifuged and incubated for 60 min.
The target of test [2] is T1, ENPP-1 ECD. The experiment in a line: Assay 1: inhibition of ENPP1 hydrolysis of 2′,3′-cGAMP (AMP-Glo, […] enzyme). The settings on record: for IC50: Assay 1 (IC50), inhibition of ENPP1 hydrolysis of 2′,3′-cGAMP, no unit in Table 18 (Table 17 legend for this assay uses nM).
Description: Assay 1: Test compounds were plated in a 3× dilution scheme in a 384 well plate. […] AMP Detection solution (100 μL) was added to each well, the plate centrifuged and incubated for 60 min.
Test [3] deals with ENPP1 on MDA-MB-231 cells (Homo sapiens (Human), UniProt P22413). The experiment in a line: Assay 3: inhibition of ENPP1 hydrolysis of AMP p-nitrophenyl ester on MDA-MB-231 cells.
Chain of ENPP1 on MDA-MB-231 cells (P22413 whole entry): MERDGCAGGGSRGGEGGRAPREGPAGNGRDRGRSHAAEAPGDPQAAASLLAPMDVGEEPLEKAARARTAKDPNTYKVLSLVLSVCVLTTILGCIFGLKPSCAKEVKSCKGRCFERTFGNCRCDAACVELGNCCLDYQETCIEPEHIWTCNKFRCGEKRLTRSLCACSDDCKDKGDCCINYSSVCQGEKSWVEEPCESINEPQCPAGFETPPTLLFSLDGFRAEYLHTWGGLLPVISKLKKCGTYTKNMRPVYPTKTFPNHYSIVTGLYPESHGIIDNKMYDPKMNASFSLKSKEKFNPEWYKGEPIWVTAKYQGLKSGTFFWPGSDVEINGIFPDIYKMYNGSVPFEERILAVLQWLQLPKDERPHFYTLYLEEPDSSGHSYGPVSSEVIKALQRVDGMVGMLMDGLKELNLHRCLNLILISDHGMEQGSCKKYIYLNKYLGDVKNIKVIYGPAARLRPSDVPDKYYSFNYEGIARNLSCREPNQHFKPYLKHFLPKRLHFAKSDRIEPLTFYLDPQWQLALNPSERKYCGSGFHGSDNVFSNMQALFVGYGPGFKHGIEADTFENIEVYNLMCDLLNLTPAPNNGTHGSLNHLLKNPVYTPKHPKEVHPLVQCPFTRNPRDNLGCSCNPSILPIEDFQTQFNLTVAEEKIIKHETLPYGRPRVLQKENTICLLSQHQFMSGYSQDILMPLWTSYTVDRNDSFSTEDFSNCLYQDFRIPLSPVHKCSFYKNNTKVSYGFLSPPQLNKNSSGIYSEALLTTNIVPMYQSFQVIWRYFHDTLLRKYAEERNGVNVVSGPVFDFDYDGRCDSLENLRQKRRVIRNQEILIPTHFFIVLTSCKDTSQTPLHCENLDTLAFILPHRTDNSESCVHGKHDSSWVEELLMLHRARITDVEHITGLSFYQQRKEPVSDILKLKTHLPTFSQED
Description: Hydrolysis of the p-nitrophenyl ester of AMP (pNP-AMP), an isostere of ATP, is selectively catalyzed by ENPP1 in the supernatant of MDA-MB-231 cell cultures. Inhibition of the hydrolysis of pNP-AMP by MDA-MB-231 at pH 7.4 and 37° C., is a good model of physiologically relevant activity of membrane-bound ENPP1 at disease-relevant expression levels.
MDA-MB-231 cells were harvested using TypLE Express Enzyme digestion and suspended in 100 μL of Leibovitz's L-15 Medium, 20% FBS, seeding the cells in a 96-well assay plate with 4.5×10^4 cells/well. Cells were incubated at 37° C. with 1% CO2 for 24 h. In a separate dilution plate, 2× of top dose of compound was prepared in phenol-red free 1640 medium without FBS and then 1:3 serial diluted in the same medium. The cell culture medium of L15 medium was aspirated carefully and cells were washed with PBS once, and 50 μL per well of test compound or DMSO blank were added to the assay plate. Substrate mix (50 μL; 0.5 mM pNP-AMP in phenol-red free 1640 media without FBS) was added for a pNP-AMP final concentration of 0.25 mM. The system was incubated at 37° C. for 3 h.
[4] abbreviates: Assay 2 (KI), ENPP1 hydrolysis of 2′,3′-cGAMP, AMP-Glo, […] ENPP-1, 24 μM cGAMP.
[5] abbreviates: IC50 in Assay 1, […] ENPP-1 ECD, 24 μM 2,3-cGAMP, pH 8.0.
The mark [6] stands for this setting: KI in Assay 2, […] ENPP-1 ECD, 24 μM 2,3-cGAMP, pH 8.0, converted from IC50 via Cheng/Prusoff.

T1 sequence (P22413 98-925): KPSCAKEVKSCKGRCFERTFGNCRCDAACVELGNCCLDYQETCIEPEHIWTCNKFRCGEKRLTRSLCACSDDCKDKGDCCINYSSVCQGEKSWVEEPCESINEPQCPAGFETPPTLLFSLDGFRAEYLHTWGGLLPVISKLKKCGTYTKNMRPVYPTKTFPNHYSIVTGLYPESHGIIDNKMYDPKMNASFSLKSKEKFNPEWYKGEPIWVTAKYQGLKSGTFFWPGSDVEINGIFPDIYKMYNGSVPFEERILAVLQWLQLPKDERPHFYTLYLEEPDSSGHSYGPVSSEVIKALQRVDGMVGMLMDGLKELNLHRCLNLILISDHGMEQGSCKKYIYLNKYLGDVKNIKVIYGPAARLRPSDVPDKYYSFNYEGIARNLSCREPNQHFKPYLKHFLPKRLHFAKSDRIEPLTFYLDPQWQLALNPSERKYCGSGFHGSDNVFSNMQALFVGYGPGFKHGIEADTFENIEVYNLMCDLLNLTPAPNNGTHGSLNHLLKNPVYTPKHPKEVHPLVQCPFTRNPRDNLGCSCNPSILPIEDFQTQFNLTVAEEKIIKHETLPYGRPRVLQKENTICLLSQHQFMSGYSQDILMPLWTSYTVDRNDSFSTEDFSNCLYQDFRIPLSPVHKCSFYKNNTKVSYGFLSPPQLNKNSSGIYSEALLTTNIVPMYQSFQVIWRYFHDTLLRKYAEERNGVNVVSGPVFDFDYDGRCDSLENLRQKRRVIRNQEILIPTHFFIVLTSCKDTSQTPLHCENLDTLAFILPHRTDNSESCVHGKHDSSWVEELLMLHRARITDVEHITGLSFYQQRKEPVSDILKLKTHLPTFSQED

For `COc1cc2nccc(N3CCC(CCS(C)(=N)=O)CC3)c2cc1Cl` (stereo not shown) [Compound 141, {2-[1-(6-chloro-7-methoxyquinolin-4-yl)piperidin-4-yl]ethyl}(imino)methyl-λ^6-sulfanone], the negative logarithm of the Ki (pKi) (usually −log10 of the Ki, conventionally taken in molar units) at ENPP-1 ECD [1] (setting [4]) was over 8.52; in test [3], 7.80. Moreover, the Ki (commonly the dissociation constant of the complex between target and ligand, obtained from inhibition or displacement) at ENPP-1 ECD [1] (Assay 2 (KI)) was found to be 0.25 nM. For the same molecule, on ENPP-1 ECD [2], the IC50 (as a rule, the midpoint of a concentration-inhibition curve) stood at 2.1 nM.

On to `COc1cc2nccc(N3CCC(CCS(C)(=N)=O)CC3)c2cc1F` (stereo not shown) [Compound 150, {2-[1-(6-fluoro-7-methoxyquinolin-4-yl)piperidin-4-yl]ethyl}(imino)methyl-λ^6-sulfanone], for which the results for the negative logarithm of the Ki (pKi) (at ENPP-1 ECD [1] (setting [4]); in test [3]) were over 8.52 and 7.21, respectively. This molecule had a Ki on ENPP-1 ECD [1] (Assay 2 (KI)) of 1.3 nM. Moreover, the IC50 at ENPP-1 ECD [2] is 8.6 nM.

As to `COc1cc2nncc(N3CCC(CCS(C)(=N)=O)CC3)c2cc1OC` (stereo not shown) [Compound 151, {2-[1-(6,7-dimethoxycinnolin-4-yl)piperidin-4-yl]ethyl}(imino)methyl-λ^6-sulfanone], the negative-log Ki (pKi) at ENPP-1 ECD [1] (setting [4]) is over 8.52; in test [3], 7.23. At ENPP-1 ECD [1] (Assay 2 (KI)), this molecule yielded a Ki of 0.57 nM. Moreover, on ENPP-1 ECD [2], 6.2 nM corresponded to half-maximal inhibition (IC50).

On to `COc1cc2ncc(C#N)c(N3CCC(CCS(C)(=N)=O)CC3)c2cc1Cl` (stereo not shown) [Compound 152, 6-chloro-4-(4-{2-[imino(methyl)oxo-λ6-sulfanyl]ethyl}piperidin-1-yl)-7-methoxyquinoline-3-carbonitrile], for which the figures for the pKi (on ENPP-1 ECD [1] (setting [4]); in test [3]) were over 8.52 and 7.59, respectively. This molecule returned a Ki on ENPP-1 ECD [1] (Assay 2 (KI)) of 0.41 nM. Besides, the IC50 on ENPP-1 ECD [2] is 2.4 nM. Further, the negative logarithm of the IC50 (pIC50) (as a rule, the negative decadic logarithm of the IC50, by convention in mol/L) at ENPP-1 ECD [2] (read-out: Assay 1 (IC50), ENPP1 hydrolysis of 2′,3′-cGAMP, AMP-Glo) was over 8.00.

Take `COc1cc2nccc(-c3ccc4c(c3)CN(S(C)(=N)=O)CC4)c2cc1OC` (stereo not shown) [Compound 161, [7-(6,7-dimethoxyquinolin-4-yl)-1,2,3,4-tetrahydroisoquinolin-2-yl](imino)methyl-λ^6-sulfanone]: the results for the pKi (on ENPP-1 ECD [1] (setting [4]); in test [3]) were over 8.52 and 8.43, respectively. This molecule had a Ki at ENPP-1 ECD [1] (Assay 2 (KI)) of 0.051 nM. In addition, inhibition on ENPP-1 ECD [2] was half-maximal at 1.3 nM (IC50). The same molecule showed a pIC50 against ENPP-1 ECD [2] (setting [5]) of 8.89.

Regarding `COc1cc2nccc(Oc3ccc(S(N)(=O)=O)cc3)c2cc1OC` [reference compound], the pKi on ENPP-1 ECD [1] (setting [6]) is 7.49; in test [3], 6.42. The molecule further gave a negative logarithm of the IC50 (pIC50) at ENPP-1 ECD [2] (setting [5]) of 6.72.

Regarding `COc1cc2ncc(C#N)c(N3CCC4(CC3)CCN(S(N)(=O)=O)C4)c2cc1F` [reference compound], the values for the pKi (on ENPP-1 ECD [1] (setting [6]); in test [3]) were 9.33 and 7.62, respectively. On ENPP-1 ECD [2] (setting [5]), this molecule gave a pIC50 of 8.54.
